# Test: method code SF-AS, from DOI: 10.1016/s0021-9673(01)95502-5
# Conditions: pH 3.4
row,Structure (SMILES),logD
1,CCC(O)(C(=O)O)c1ccc(CC(C)C)cc1 (stereo not drawn),3.37
2,O=C(O)CCCC(=O)c1ccc(-c2ccccc2)cc1,3.35
3,CC(CC(=O)c1ccccc1)C(=O)O (stereo not drawn),1.62
4,O=C(O)CCC(=O)c1ccccc1,1.3
5,COc1ccc(C(=O)CCCC(=O)O)cc1Cl,2.17
6,COc1ccc(C(=O)CCC(=O)O)cc1,1.38
7,COc1ccc(C(=O)CC(C)CC(=O)O)cc1Cl (stereo not drawn),2.6
8,CC(CC(=O)O)CC(=O)c1ccc(-c2ccccc2)cc1 (stereo not drawn),3.82

# Same assay, conditions: pH 3.5
row,Structure (SMILES),logD
1,O=C(O)CCC(=O)c1ccc(C2CCCCC2)cc1,3.76
2,CCC(O)(C(=O)O)c1ccc(-c2ccccc2)cc1 (stereo not drawn),3.37
3,CCc1ccc(CC(=O)O)cc1,2.43
4,CC(C)c1ccc(CC(=O)O)cc1,2.85
5,CC(C)c1ccc(C(=O)CCC(=O)O)cc1,2.7
6,CC(C)(C)c1ccc(CC(=O)O)cc1,3.13
7,CC(C)Oc1ccc(C(=O)CC(C)C(=O)O)cc1 (stereo not drawn),2.5
8,CC(C)COc1ccc(C(=O)CC(C)C(=O)O)cc1Cl (stereo not drawn),3.6
9,CC(C)Cc1ccc(C(=O)CCCC(=O)O)cc1,3.39
10,CC(C)Oc1ccc(C(=O)CCC(=O)O)cc1,2.18
11,COc1ccc(C(=O)CCC(=O)O)cc1Cl,1.98
12,COc1ccc(C(C)(O)C(=O)O)cc1Cl (stereo not drawn),1.26

# Next, values leading:
row,logD,Structure (SMILES)
1,2.28,O=C(O)CCC(=O)c1ccc(Br)cc1
2,4.38,CC(CC(=O)O)CC(=O)c1ccc(C2CCCCC2)cc1 (stereo not drawn)
3,2.89,CC(C)c1ccc(C(=O)CCCC(=O)O)cc1
4,4.08,CC(CC(=O)c1ccc(C2CCCCC2)cc1)C(=O)O (stereo not drawn)
5,3.26,CC(O)(C(=O)O)c1ccc(C2CCCCC2)cc1 (stereo not drawn)
6,3.2,CC(C)Cc1ccc(C(=O)CCC(=O)O)cc1
7,2.78,CC(C)Oc1ccc(C(=O)CCC(=O)O)cc1Cl
8,3.4,CC(CC(=O)O)CC(=O)c1ccc(OC(C)C)c(Cl)c1 (stereo not drawn)
9,0.81,COc1ccc(C(C)(O)C(=O)O)cc1 (stereo not drawn)
10,3.95,O=C(O)CCCC(=O)c1ccc(C2CCCCC2)cc1
11,3.88,CCCCCCOc1ccc(C(=O)CCC(=O)O)cc1
12,4.36,O=C(O)CCC(=O)c1ccc(C2CCCCC2)c(Cl)c1

# Test: not given
# Conditions: not given
row,Structure (SMILES),logP
1,CC(CC(=O)c1ccc(-c2ccccc2)cc1)C(=O)O (stereo not drawn),3.13
